Numbers after ± are expanded uncertainties.
Key:
[1] = Boiling temperature at pressure P; conditions: Liquid, ebulliometry
[2] = Liquid

SMILES	Boiling temperature at pressure P ([1]; 33.3 kPa)	Boiling temperature at pressure P ([1]; 66.6 kPa)	Boiling temperature at pressure P ([1]; 101.3 kPa)	vapor or sublimation pressure ([2]; 357.85 K)	vapor or sublimation pressure ([2]; 364.85 K)	vapor or sublimation pressure ([2]; 370.45 K)	vapor or sublimation pressure ([2]; 372.95 K)	vapor or sublimation pressure ([2]; 375.15 K)	vapor or sublimation pressure ([2]; 379.05 K)	vapor or sublimation pressure ([2]; 382.75 K)	vapor or sublimation pressure ([2]; 385.65 K)	vapor or sublimation pressure ([2]; 388.95 K)	vapor or sublimation pressure ([2]; 390.35 K)	vapor or sublimation pressure ([2]; 391.65 K)	vapor or sublimation pressure ([2]; 394.15 K)	vapor or sublimation pressure ([2]; 396.65 K)	vapor or sublimation pressure ([2]; 398.85 K)	vapor or sublimation pressure ([2]; 401.05 K)	vapor or sublimation pressure ([2]; 402.45 K)
CCO [ethanol]	52.60 ± 0.2 °C	68.00 ± 0.2 °C	78.30 ± 0.2 °C																
CCC(C)CO (centres undefined) [2-methyl-1-butanol]				16.7 ± 0.3 kPa	23.3 ± 0.3 kPa	30 ± 0.4 kPa	33.3 ± 0.4 kPa	36.7 ± 0.4 kPa	43.3 ± 0.4 kPa	50 ± 0.4 kPa	56.6 ± 0.5 kPa	63.3 ± 0.5 kPa	66.6 ± 0.5 kPa	70 ± 0.5 kPa	76.6 ± 0.5 kPa	83.3 ± 0.6 kPa	90 ± 0.6 kPa	96.6 ± 0.6 kPa	101.3 ± 0.6 kPa

From the NIST ThermoML archive (doi:10.1021/je010272x)
